Experimental data: US9790235B2, “MK2 inhibitors and uses thereof” (Celgene CAR LLC, priority 2014, dated 2017)
Read-outs that look alike come from different tables or passages of the source.

Legend:
[1] = molecular target: p38α activated, mitogen-activated protein kinase-activated protein kinase 2 (MAPKAP-K2 or MK2) enzyme (Homo sapiens (Human), UniProt P49137); test: MK2 Omnia continuous-read kinase assay for compound potency; assay type: biochemical; conditions: read-out: MK2 IC50
Excerpt: Mitogen-Activated Protein Kinase-Activated Protein Kinase 2 Omnia® Assay for Compound Potency Assessment:
The protocol below describes a continuous-read kinase assay optimized to measure potency of compounds against p38α activated, mitogen-activated protein kinase-activated protein kinase 2 (MAPKAP-K2 or MK2) enzyme. Further details of this assay are described by Life Technologies, Carlsbad, Calif. on their website at the following URL: http://tools.lifetechnologies.com/content/sfs/manuals/omnia_kinase_assay_man.pdf.
[Reagent] used: • [MK-2]=0.4 nM, • [ATP]=10 μM and • [ST3-Sox]=10 μM (ATP^appKM=10 μM)
Kinase reactions were started with the addition of 45 μL of the ATP-peptide substrate S/T3-Sox mix and monitored every 71 seconds for 120 minutes at λex360/λem485 in a Synergy H4 plate reader from BioTek (Winooski, Vt.) at room temperature.
Background signals from the no enzyme control wells were subtracted from all progress curves. The initial linear portions of the net progress curves were fit according to a linear equation to yield the slope and percentage of inhibition (% inhibition) at each compound concentration. The net progress curves obtained during the first two hours of reactions were also fit according to an ascending single-exponential equation (Eq. 1) to yield kobs values at each compound concentration. Plots of % Inhibition versus inhibitor concentrations were fit according to a dose-response equation (Eq. 2) to generate IC50 and Hill slope values while plots of kobs versus inhibitor concentration were fit according to Equation 3 (Eq. 3) to generate apparent kinact/KI values using the GraphPad PRISM software (Version 6.00; GraphPad San Diego, Calif.).
[formula] where F is the fluorescence intensity from the plate reader, V0 is a constant reflecting the relationship between the instrument readout and product concentration, t is time, e is Euler's number, and kobs is the observed inactivation rate constant.
[formula] where % Inhibition is percentage of inhibition, IC50 is half maximal inhibitory concentration, [I] is the inhibitor concentration, and n is the Hill slope.

[2] = molecular target: T1, MK2 (Homo sapiens (Human), UniProt P49137); test: MK2 cellular assay, total and phospho-Hsp27 (Serine 78) by MSD ELISA (Thp1); assay type: cell-based; conditions: Thp-1 cells, 1 hour compound, 50 ng/mL LPS 45 minutes, p-HSP27 (Ser78)/total HSP27; read-out: pHSP27 signaling EC50
Description: MK2 Cellular Assay—Detection of Total and Phospho-Hsp27 (Serine 78) by MSD ELISA (Thp1)
Compounds of the invention were assayed in Thp-1 human acute monocytic leukemia cells to measure inhibition of MK2 activity. Thp-1 cells were grown in culture medium containing RPMI/10% FBS (fetal bovine serum)/0.05 mM 2-mercaptoethanol. 72 hours prior to the assay, 8×10^4 cells per well were plated in a 96 well flat bottom plate along with 10 ng/mL phorbol 12-myristate 13-acetate (PMA). Cells were cultured in an incubator at 37° C. until needed for the assay. Cell plate media was replaced with culture media just prior to assay while compound dilutions were being made.
Stock solutions of test compound, 1 mM in DMSO, were prepared. 0.9 μl of test compound was added to 300 μl cell media for a starting concentration of 3000 nM. […] Cell plate media was discarded, followed by addition of 100 μl of the compound containing media. The resulting preparation was incubated at 37° C. for 1 hour.
Test compound-containing cell assay media was removed and the cells were washed once with cell assay media. Cell assay media containing 50 ng/mL LPS (lipopolysaccharide) was added to the each well and incubated for 45 minutes. Following LPS incubation, the cells were washed once with PBS (phosphate-buffered saline) and lysed with 60 μl Cell Extraction Buffer (Invitrogen #FNN0011) plus protease and phosphatase inhibitors. The plate was then stored at −80° C. until further analysis.
The MULTI-SPOT Phospho(Ser78)/Total HSP27 ELISA Assay kit was purchased from Meso Scale […] (MSD; catalog #K15128D). […] The pre-coated MSD plate was blocked with 150 μL/well of 3% BSA in MSD wash buffer. The preparation was placed on a shaker at room temperature for an hour. While the ELISA plate was blocked, the cell assay plate stored at −80° C. was placed on a shaker at 4° C. for 1 hour to thaw.
The blocked MSD plate was washed on a plate washer, tapping out the last bit of wash solution, followed by addition of 30 μl of the lysate from the cell assay plate. The preparation was covered and incubated for 1 hour at room temperature. The lysate was removed, the plate was washed 3 times on a plate washer and the last bit of wash buffer was tapped out and replaced with 25 μl/well detection antibody (anti-total HSP27 conjugated with an electrochemiluminescent compound, MSD SULFO-TAG label, supplied in kit) made in 1% BSA/MSD wash buffer. The plate was incubated for 1 hour at room temperature on a shaker, followed by 3 washes. The last bit of wash buffer was tapped out. 150 μl/well 1×MSD read buffer was added (4× read buffer supplied with kit) and the plate was analyzed on the MSD SECTOR® Imager for analysis. The SECTOR® Imager measures intensity of emitted light to provide a quantitative measure of phosphorylated HSP27 (Ser78) and total HSP27 present in the sample. The relative percent phosphoprotein in a sample is calculated by dividing the Phospho-HSP27 signal intensity over the total HSP27 signal intensity measured in each well.

[3] = molecular target: T1, MK2
Description: Aliquots of the resulting mixture (6 μL each) were diluted with 0.2% trifluoroacetic acid (TFA, 10 μL) prior to micro C4 ZipTipping directly onto the MALDI target using sinapinic acid as the desorption matrix (10 mg/ml in 0.1% TFA:acetonitrile 50:50, v/v). The centroid mass of the target protein in the control sample was compared with the centroid mass of the target protein incubated with compound. A shift in the centroid mass of the treated protein compared to the untreated protein was divided by the molecular weight of the compound. This number corresponds to the percentage of modified protein (a measure of the proportion of total target protein covalently bound to the test compound) after one hour incubation.
3 μL of magnetic Ni-NTA beads were added to the 6 μL aliquots of sample, washed, eluted with 0.2% trifluoroacetic acid (TFA, 2 μL), and spotted directly onto the MALDI target using sinapinic acid as the desorption matrix (10 mg/ml in 0.1% TFA:acetonitrile 50:50, v/v). The centroid mass of the target protein in the control sample was compared with the centroid mass of the target protein incubated with compound. A shift in the centroid mass of the treated protein compared to the untreated protein was divided by the molecular weight of the compound. This number corresponds to the percentage of modified protein (a measure of the proportion of total target protein covalently bound to the test compound) after one hour incubation.

[4] = [MK-2]=0.4 nM, [ATP]=10 μM, [ST3-Sox]=10 μM
[5] = percentage of modified protein after 60 minutes at room temperature, 10-fold excess of compound, MALDI (I-1 to I-50), magnetic bead MALDI (I-51 to I-129)
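Wherever Mass Modification is given: covalent binding read from centroid mass shift of compound-treated versus untreated intact MK2, shift divided by compound molecular weight, giving fraction of total protein bound.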

T1 sequence (P49137 whole entry): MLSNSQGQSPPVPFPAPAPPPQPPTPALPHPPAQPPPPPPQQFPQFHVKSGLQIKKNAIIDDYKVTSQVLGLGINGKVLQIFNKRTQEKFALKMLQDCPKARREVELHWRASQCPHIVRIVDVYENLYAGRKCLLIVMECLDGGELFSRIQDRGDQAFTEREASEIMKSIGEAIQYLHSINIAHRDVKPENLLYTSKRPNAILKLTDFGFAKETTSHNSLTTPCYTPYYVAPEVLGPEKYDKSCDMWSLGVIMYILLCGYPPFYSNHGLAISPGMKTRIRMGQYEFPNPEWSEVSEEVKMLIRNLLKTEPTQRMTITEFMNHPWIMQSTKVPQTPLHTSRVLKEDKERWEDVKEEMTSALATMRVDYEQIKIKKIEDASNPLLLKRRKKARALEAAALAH
p38α activated, mitogen-activated protein kinase-activated protein kinase 2 (MAPKAP-K2 or MK2) enzyme, sequence (P49137 whole entry): as above

Compound | IC50 [1, 4] | EC50 [2] | Mass Modification [3, 5] | IC50 [1] | Mass Modification [3]
C[C@@H]1CNc2c(sc3ccc4nc(Oc5nc(Cl)ncc5COC5(C)COC5)ccc4c23)C(=O)N1 [I-103, (R)-3-((2-chloro-5-(((3-methyloxetan-3-yl)oxy)methyl)pyrimidin-4-yl)oxy)-10-methyl-9,10,11,12-tetrahydro-8H-[1,4]diazepino[5′,6′:4,5]thieno[3,2-f]quinolin-8-one] | < 100 nM | 101 to 500 nM | E (mass modification of ≧70%) | – | –
C[C@@H]1CNc2c(sc3ccc4nc(Oc5cc(CN(C)C(C)(C)C)nc(Cl)n5)ccc4c23)C(=O)N1 [I-118, (R)-3-((6-((tert-butyl(methyl)amino)methyl)-2-chloropyrimidin-4-yl)oxy)-10-methyl-9,10,11,12-tetrahydro-8H-[1,4]diazepino[5′,6′:4,5]thieno[3,2-f]quinolin-8-one] | 501 to 999 nM | 101 to 500 nM | E (mass modification of ≧70%) | – | –
C[C@@H]1CNc2c(sc3ccc4nc(Nc5ccnc(S(C)(=O)=O)n5)ccc4c23)C(=O)N1 [I-14, (R)-10-methyl-3-((2-(methylsulfonyl)pyrimidin-4-yl)amino)-9,10,11,12-tetrahydro-8H-[1,4]diazepino[5′,6′:4,5]thieno[3,2-f]quinolin-8-one] | < 100 nM | > 1000 nM | G (mass modification ≦30%) | – | –
C[C@@H]1CNc2c(sc3ccc4nc(Oc5nc(Cl)nc(N6CCOCC6)n5)ccc4c23)C(=O)N1 [I-63, (R)-3-((4-chloro-6-morpholino-1,3,5-triazin-2-yl)oxy)-10-methyl-9,10,11,12-tetrahydro-8H-[1,4]diazepino[5′,6′:4,5]thieno[3,2-f]quinolin-8-one] | < 100 nM | < 100 nM | E (mass modification of ≧70%) | – | –
C[C@@H]1CNc2c(sc3ccc4nc(Nc5cc(Cl)ncc5C#N)ccc4c23)C(=O)N1 [I-25, (R)-6-chloro-4-((10-methyl-8-oxo-9,10,11,12-tetrahydro-8H-[1,4]diazepino[5′,6′:4,5]thieno[3,2-f]quinolin-3-yl)amino)nicotinonitrile] | – | < 100 nM | – | < 100 nM | F (key: E: mass modification of ≧70%; F: mass modification of 31-69%; G: mass modification ≦30%)
C[C@@H]1CNc2c(sc3ccc4nc(Nc5nccc(Cl)n5)ccc4c23)C(=O)N1 [I-13, (R)-3-((4-chloropyrimidin-2-yl)amino)-10-methyl-9,10,11,12-tetrahydro-8H-[1,4]diazepino[5′,6′:4,5]thieno[3,2-f]quinolin-8-one] | – | > 1000 nM | – | – | G (key: E: mass modification of ≧70%; F: mass modification of 31-69%; G: mass modification ≦30%)
C[C@@H]1CNc2c(sc3ccc4nc(Oc5nc(Cl)ncc5CN5CCC[C@H]5C)ccc4c23)C(=O)N1 [I-99, (R)-3-((2-chloro-5-(((R)-2-methylpyrrolidin-1-yl)methyl)pyrimidin-4-yl)oxy)-10-methyl-9,10,11,12-tetrahydro-8H-[1,4]diazepino[5′,6′:4,5]thieno[3,2-f]quinolin-8-one] | < 100 nM | < 100 nM | – | – | –
C[C@@H]1CNc2c(sc3ccc4nc(Oc5ncncc5CN(C)C(C)(C)C)ccc4c23)C(=O)N1 [I-104, (R)-3-((5-((tert-butyl(methyl)amino)methyl)pyrimidin-4-yl)oxy)-10-methyl-9,10,11,12-tetrahydro-8H-[1,4]diazepino[5′,6′:4,5]thieno[3,2-f]quinolin-8-one] | 501 to 999 nM | > 1000 nM | – | – | –
C[C@@H]1CNc2c(sc3ccc4nc(Nc5cc(F)nc(OCCN6CCN(C)CC6)n5)ccc4c23)C(=O)N1 [I-48, (R)-3-((6-fluoro-2-(2-(4-methylpiperazin-1-yl)ethoxy)pyrimidin-4-yl)amino)-10-methyl-9,10,11,12-tetrahydro-8H-[1,4]diazepino[5′,6′:4,5]thieno[3,2-f]quinolin-8-one] | < 100 nM | > 1000 nM | – | – | –
C[C@@H]1CNc2c(sc3ccc4nc(Nc5nc(Cl)ncc5C(=O)NC5CC5)ccc4c23)C(=O)N1 [I-21, (R)-2-chloro-N-cyclopropyl-4-((10-methyl-8-oxo-9,10,11,12-tetrahydro-8H-[1,4]diazepino[5′,6′:4,5]thieno[3,2-f]quinolin-3-yl)amino)pyrimidine-5-carboxamide] | – | > 1000 nM | G (mass modification ≦30%) | – | –
C[C@@H]1CNc2c(sc3ccc4nc(Nc5nc(Cl)ncc5C(=O)NC5COC5)ccc4c23)C(=O)N1 [I-20, (R)-2-chloro-4-((10-methyl-8-oxo-9,10,11,12-tetrahydro-8H-[1,4]diazepino[5′,6′:4,5]thieno[3,2-f]quinolin-3-yl)amino)-N-(oxetan-3-yl)pyrimidine-5-carboxamide] | – | > 1000 nM | G (mass modification ≦30%) | – | –
CO[C@H]1CCCN(Cc2cnc(Cl)nc2Oc2ccc3c(ccc4sc5c(c43)NC[C@@H](C)NC5=O)n2)C1 [I-106, (R)-3-((2-chloro-5-(((S)-3-methoxypiperidin-1-yl)methyl)pyrimidin-4-yl)oxy)-10-methyl-9,10,11,12-tetrahydro-8H-[1,4]diazepino[5′,6′:4,5]thieno[3,2-f]quinolin-8-one] | 101 to 500 nM | < 100 nM | – | – | –
CN(C)C[C@@H]1CNc2c(sc3ccc4nc(Nc5cc(F)ncn5)ccc4c23)C(=O)N1 [I-31, (S)-10-((dimethylamino)methyl)-3-((6-fluoropyrimidin-4-yl)amino)-9,10,11,12-tetrahydro-8H-[1,4]diazepino[5′,6′:4,5]thieno[3,2-f]quinolin-8-one] | – | > 1000 nM | F (mass modification of 31-69%) | – | –
C[C@@H]1CNc2c(sc3ccc4nc(Oc5nc(Cl)ncc5CN5CCC[C@@H]5C)ccc4c23)C(=O)N1 [I-101] | < 100 nM | < 100 nM | – | – | –
C[C@@H]1CNc2c(sc3ccc4nc(Oc5cc(CNC(C)(C)C)nc(Cl)n5)ccc4c23)C(=O)N1 [I-117, (R)-3-((6-((tert-butylamino)methyl)-2-chloropyrimidin-4-yl)oxy)-10-methyl-9,10,11,12-tetrahydro-8H-[1,4]diazepino[5′,6′:4,5]thieno[3,2-f]quinolin-8-one] | – | < 100 nM | – | – | –
C[C@@H]1CNc2c(sc3ccc4nc(Oc5nc(Cl)ncc5-c5cccnc5)ccc4c23)C(=O)N1 [I-123, (R)-3-((2-chloro-5-(pyridin-3-yl)pyrimidin-4-yl)oxy)-10-methyl-9,10,11,12-tetrahydro-8H-[1,4]diazepino[5′,6′:4,5]thieno[3,2-f]quinolin-8-one] | < 100 nM | < 100 nM | – | – | –
